{"source": "patent US7892767B2", "about": "“Phosphospecific chemokine receptor antibodies” (Washington University in St. Louis, priority 2005, dated 2011)", "key": {"cortical astrocytes": {"system": "cortical astrocytes", "test": "Intracellular cAMP by ELISA, primary cortical astrocytes", "type": "cell-based, mouse", "details": "1 μg/ml CXCL12", "experimental": "Primary astrocyte cultures. Primary astrocytes were cultured from 1 to 3-day-old BALB/C mice as described (57). The cortices were triturated into single cells in minimal essential medium (Invitrogen) containing 10% FCS, and then plated onto 75 cm^2 T-flasks (0.5 hemisphere/flask) for 10-14 days. Astrocytes were prepared by vigorous shaking of T-flasks overnight, removal of non-adherent cells, and isolation of the remaining adherent cells, with 0.1% trypsin.\nGrowth factor and drug treatment. Following serum-starvation for 24 hours, astrocytes, granule cells, U87 cells and Daoy cells, were treated with 1 μg/ml CXCL12 (PeproTech), […] AMD3465 (kind gift from Simon Fricker, AnorMED, Langley, BC, Canada) (200 μM Rolipram (Sigma), or 10 μM Forskolin (Sigma) as indicated.\nDetermination of cAMP concentration. Competitive immunoassay for cAMP concentration was performed exactly as directed by the manufacturer. Absorbance at 405 nm was measured and cAMP concentrations were determined by calculation based on a standard curve. Protein concentrations were measured by colormetric assay (Bio-Rad, Hercules, Calif.) according to the manufacturer's directions. cAMP values were normalized to protein for each sample individually."}, "Nf1−/− astrocytes": {"system": "Nf1−/− astrocytes", "test": "Cell number by trypan blue exclusion, Nf1−/− astrocytes", "type": "cell-based, mouse", "details": "CXCL12 0.1 ug/ml (≈10 nM), 24 hours, vs untreated controls", "experimental": "Culture and treatment of primary astrocytes. Primary cultures of astrocytes were prepared from post-natal day two Nf1^flox/flox mice as previously described (134) and in accordance with established Animal Studies Protocols at Washington University School of Medicine. Cultures were infected with adenovirus containing either Cre recombinase (Nf1−/−) or LacZ (Nf1+/+). Primary cultures of astrocytes were grown under standard adherent conditions in serum free media (DMEM/F12 or Neurobasal (Gibco-BRL)) in the presence or absence of 0.1 μg/ml CXCL12 (Peprotech) and 10 μM Forskolin for 24 hours, as indicated. Cell number was determined after 24 hours by trypan blue exclusion and the growth effects of CXCL12 were derived as follows: ((cell number in the presence of CXCL12—cell number cell in the absence of CXCL12)/cell number in the absence of CXCL12)×100.)\nTo determine the biological significance of CXCR4 activation to NF1 glioma biology, we next sought to evaluate the regulation of CXCL12 growth effects by neurofibromin in astrocytes. While the true cell of origin of astrocytomas remains unknown, we utilized primary cultures of cortical astrocytes as a model of a normal counterpart to astrocytoma cells. Astrocytes were derived from Nf1^flox/flox mice and rendered Nf1+/+ or Nf1−/− by infection with adenovirus encoding LacZ or Cre recombinase, respectively."}}, "data": [{"substance": "CXCL12: chemokine ligand of CXCR4 (Peprotech)", "values": [{"measurement": "cAMP, lower level of fluctuation", "setting": "cortical astrocytes", "result": "40 % of baseline"}, {"measurement": "increase in cell number", "setting": "Nf1−/− astrocytes", "result": "~14+/−2%"}]}]}
